The target in assay [1] is [^3H]gabapentin site in porcine cortical membranes (Sus scrofa, UniProt O77773). The settings on record: saturation binding analyses on porcine synaptic plasma cerebral cortex membranes in the presence of L-leucine; cited from earlier work.
Assay [2] addresses porcine α2δ-1b-6His (SEQ ID No 9) (Sus scrofa, UniProt A0A287BIN3). The settings on record: [3H]gabapentin 10-13 nM.
Description: Assays were carried out at 21° C. in a final volume of 250 μl in 96-well NEN Ni chelate flash plates. Wells were set up for both ‘total’ and ‘non-specific’ binding. Specific binding was defined as that remaining after subtraction of the average of the ‘non-specific binding’ values from the average of the ‘total’ binding values. Assay components were added in the following order (all reagents were diluted in 10 mM HEPES (pH 7.4 at 21° C.)):
Immediately after adding radioligand, flash plates were loaded in the Packard Top Count scintillation counter to follow the binding time course. Incubation time before the assay was 3 hours. The ‘[^3H] flash plate’ programme (cpm) was used to monitor activity. Specific binding was ˜98% of the ‘total’ value. Imidazole was used in the assay to optimize the specific interaction of the protein's 6His tag with the Ni flashplate.
GraphPad Prism software was used to process competition curve data and determine IC50 and hill slope values. Twelve point competition curves with half log dilution steps of test compounds were used in the experiments.
[3] abbreviates: read-out: Ki, Flash plate (3 μl protein used, n = 2), single experiments, Ki = IC50/(1 + [L]/KD), 3 h incubation.
The mark [4] stands for this setting: read-out: Ki, Flash plate, Mean (geometric), geometric mean of n = 2.

The structures appear in SMILES notation. Values joined by “and” are separate entries in the source; they are usually repeats but may differ in a detail not shown here. Identical values can stand only once. Like-named read-outs stand apart in the source and are kept apart here.

Sequence of porcine α2δ-1b-6His (SEQ ID No 9) (A0A287BIN3 25-1109 limits assumed): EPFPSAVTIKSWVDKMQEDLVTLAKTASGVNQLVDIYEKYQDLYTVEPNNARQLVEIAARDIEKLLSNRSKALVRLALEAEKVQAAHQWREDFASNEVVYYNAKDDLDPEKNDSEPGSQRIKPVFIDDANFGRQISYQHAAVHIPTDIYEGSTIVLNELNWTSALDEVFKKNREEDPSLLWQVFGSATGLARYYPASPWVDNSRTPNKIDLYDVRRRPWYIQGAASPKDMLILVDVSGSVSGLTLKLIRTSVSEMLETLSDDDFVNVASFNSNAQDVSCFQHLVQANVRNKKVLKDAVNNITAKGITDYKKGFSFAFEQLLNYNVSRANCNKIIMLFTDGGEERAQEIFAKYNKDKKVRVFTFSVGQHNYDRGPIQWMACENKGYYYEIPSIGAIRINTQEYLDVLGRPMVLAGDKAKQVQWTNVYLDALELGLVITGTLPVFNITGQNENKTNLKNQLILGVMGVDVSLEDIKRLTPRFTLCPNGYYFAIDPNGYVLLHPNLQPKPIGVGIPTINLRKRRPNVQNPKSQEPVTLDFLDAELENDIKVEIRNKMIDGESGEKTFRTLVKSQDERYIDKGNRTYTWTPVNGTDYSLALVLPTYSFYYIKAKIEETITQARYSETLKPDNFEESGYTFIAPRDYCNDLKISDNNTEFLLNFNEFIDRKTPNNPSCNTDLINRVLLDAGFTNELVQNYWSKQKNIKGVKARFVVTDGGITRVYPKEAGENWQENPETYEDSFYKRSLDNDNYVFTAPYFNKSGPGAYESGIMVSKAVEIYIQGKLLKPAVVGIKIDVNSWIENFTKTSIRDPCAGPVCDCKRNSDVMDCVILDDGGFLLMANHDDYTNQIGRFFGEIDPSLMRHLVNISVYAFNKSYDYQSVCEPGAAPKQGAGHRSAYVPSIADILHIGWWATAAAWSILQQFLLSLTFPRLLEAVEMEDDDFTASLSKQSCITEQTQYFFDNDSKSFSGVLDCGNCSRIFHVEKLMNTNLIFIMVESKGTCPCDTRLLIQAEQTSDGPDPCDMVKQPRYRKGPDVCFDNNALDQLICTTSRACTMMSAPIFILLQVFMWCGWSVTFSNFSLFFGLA
Sequence of [^3H]gabapentin site in porcine cortical membranes (O77773 25-1091): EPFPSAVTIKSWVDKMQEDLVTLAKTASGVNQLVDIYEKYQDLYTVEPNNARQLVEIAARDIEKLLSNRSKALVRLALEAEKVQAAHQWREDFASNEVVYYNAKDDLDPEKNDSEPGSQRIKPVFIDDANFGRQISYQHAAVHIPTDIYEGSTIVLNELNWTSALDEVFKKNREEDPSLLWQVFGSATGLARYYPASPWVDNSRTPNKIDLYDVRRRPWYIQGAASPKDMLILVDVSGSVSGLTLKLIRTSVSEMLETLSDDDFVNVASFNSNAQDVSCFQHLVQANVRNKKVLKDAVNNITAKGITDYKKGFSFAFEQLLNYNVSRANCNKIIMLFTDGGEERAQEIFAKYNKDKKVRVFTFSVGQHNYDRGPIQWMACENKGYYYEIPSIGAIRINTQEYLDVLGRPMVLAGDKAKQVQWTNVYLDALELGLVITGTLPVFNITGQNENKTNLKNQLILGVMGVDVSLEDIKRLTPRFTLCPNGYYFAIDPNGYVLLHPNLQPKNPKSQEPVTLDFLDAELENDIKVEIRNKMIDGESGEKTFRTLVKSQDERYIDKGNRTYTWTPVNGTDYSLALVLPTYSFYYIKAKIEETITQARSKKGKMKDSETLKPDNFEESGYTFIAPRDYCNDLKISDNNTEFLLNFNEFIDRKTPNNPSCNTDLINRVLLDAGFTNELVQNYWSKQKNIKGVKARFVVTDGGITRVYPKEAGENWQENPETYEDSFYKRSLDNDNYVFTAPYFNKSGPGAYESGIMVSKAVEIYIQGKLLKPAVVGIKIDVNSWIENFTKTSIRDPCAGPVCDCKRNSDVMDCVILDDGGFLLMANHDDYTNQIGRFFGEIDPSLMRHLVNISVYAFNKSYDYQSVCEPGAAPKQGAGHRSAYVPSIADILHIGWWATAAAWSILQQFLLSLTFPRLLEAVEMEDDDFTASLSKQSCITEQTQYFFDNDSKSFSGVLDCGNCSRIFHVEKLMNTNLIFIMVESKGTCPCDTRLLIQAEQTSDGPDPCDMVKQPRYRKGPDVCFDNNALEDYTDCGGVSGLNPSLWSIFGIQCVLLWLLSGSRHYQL

Regarding `CC(C)C[C@H](N)C(=O)O` [L-Leucine], the “interaction with the [3H]gabapentin binding site” value in assay [1] is “competitive interaction”.
As for `CC(C)C[C@@H](CN)CC(=O)O` [(R-)-3-isobtyl GABA, (R−)-3-Isobutyl GABA], the Ki – broadly, a measure of affinity in units of concentration, obtained from inhibition or displacement – in assay [2] (setting [3]) is 157 nM and 207 nM; in assay [2] (setting [4]) it was 180 nM.
On to `CC(C)C[C@H](CN)CC(=O)O` [(S+)-3-isobutyl GABA], for which the Ki in assay [2] (setting [3]) was 10.9 nM and 7.58 nM; in assay [2] (setting [4]), 9.09 nM.

The record behind these values is patent US20030073132A1, “Method for the screening of alpha2delta-1 subunit binding ligands” (priority 1999, published 2003).
